# Source: ChEMBL document CHEMBL5465560, “Selectivity Literature for EUbOPEN Chemogenomic Library” (2024)
# Columns and labels:
# [1] = molecular target: Histamine H1 receptor (Homo sapiens, UniProt P35367); assay: Selectivity interaction (Histamine H1 receptor assay, human recombinant ) EUB0000877a HRH1
# [2] = molecular target: T1, Discoidin domain-containing receptor 2 (Homo sapiens) (UniProt Q16832); assay: Selectivity interaction (Upstate Kinase Profiler service (Millipore)) EUB0000056c DDR2; details: at 1 µM
# T1 sequence (whole entry): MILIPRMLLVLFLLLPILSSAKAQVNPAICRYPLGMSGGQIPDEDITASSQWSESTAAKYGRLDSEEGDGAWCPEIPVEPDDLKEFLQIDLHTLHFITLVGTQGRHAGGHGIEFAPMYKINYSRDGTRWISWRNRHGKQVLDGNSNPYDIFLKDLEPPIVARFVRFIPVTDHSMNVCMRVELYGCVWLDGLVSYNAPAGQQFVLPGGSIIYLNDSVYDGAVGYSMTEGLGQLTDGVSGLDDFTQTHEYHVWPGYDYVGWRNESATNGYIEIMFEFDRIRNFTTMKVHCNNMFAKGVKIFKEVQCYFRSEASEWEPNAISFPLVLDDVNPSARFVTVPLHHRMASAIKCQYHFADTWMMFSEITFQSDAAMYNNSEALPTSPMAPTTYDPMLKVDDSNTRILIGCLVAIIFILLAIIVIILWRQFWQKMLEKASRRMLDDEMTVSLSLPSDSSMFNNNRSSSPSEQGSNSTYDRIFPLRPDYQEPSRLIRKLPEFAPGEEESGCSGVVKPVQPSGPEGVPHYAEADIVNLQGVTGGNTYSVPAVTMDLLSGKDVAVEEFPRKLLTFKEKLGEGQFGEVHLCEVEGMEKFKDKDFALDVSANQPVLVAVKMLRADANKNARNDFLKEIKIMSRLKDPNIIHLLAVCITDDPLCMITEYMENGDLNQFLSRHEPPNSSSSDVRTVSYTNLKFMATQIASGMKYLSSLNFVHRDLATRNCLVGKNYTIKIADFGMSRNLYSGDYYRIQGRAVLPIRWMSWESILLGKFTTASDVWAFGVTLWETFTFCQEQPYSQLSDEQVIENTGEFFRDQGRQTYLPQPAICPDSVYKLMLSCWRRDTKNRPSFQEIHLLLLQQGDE
# [3] = molecular target: 5'-AMP-activated protein kinase catalytic subunit alpha-1 (Homo sapiens, UniProt Q13131); assay: Selectivity interaction (ActivX KiNativ screen (kinase selectivity in THP-1 cell lysates)) EUB0000639a PRKAA1; type: subcellular; details: lysate, at 0.04 µM
# [4] = molecular target: T2, Serine/threonine-protein kinase ULK1 (Homo sapiens) (UniProt O75385); details: at 10 µM
# T2 sequence (whole entry): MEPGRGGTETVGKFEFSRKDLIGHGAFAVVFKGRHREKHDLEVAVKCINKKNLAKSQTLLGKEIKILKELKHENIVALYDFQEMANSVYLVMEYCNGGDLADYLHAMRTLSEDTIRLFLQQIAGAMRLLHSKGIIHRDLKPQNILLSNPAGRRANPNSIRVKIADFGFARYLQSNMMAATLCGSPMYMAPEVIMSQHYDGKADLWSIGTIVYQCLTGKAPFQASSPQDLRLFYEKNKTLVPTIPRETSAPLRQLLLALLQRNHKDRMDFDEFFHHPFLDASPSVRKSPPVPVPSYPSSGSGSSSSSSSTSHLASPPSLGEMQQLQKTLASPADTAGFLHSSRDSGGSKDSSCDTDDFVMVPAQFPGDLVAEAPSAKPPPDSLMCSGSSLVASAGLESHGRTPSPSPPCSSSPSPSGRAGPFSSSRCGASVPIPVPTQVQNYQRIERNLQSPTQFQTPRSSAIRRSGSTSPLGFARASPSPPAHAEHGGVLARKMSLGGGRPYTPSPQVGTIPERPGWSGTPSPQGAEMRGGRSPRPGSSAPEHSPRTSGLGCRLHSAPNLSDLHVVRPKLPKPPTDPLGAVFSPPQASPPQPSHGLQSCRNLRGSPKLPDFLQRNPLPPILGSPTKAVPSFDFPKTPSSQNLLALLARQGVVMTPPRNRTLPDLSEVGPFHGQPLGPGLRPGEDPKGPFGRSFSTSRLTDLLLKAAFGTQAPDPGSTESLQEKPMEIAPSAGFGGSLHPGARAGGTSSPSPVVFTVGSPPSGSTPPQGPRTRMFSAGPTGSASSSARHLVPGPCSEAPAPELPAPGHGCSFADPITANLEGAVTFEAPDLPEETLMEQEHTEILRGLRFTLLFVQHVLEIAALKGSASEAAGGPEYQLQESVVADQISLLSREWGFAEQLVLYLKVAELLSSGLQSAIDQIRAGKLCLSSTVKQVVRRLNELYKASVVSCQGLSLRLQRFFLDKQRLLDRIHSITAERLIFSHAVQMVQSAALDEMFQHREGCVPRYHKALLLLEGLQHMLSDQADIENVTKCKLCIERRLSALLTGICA
# [5] = molecular target: T3, Tyrosine-protein kinase ITK/TSK (Homo sapiens) (UniProt Q08881); details: at 10 µM
# T3 sequence (whole entry): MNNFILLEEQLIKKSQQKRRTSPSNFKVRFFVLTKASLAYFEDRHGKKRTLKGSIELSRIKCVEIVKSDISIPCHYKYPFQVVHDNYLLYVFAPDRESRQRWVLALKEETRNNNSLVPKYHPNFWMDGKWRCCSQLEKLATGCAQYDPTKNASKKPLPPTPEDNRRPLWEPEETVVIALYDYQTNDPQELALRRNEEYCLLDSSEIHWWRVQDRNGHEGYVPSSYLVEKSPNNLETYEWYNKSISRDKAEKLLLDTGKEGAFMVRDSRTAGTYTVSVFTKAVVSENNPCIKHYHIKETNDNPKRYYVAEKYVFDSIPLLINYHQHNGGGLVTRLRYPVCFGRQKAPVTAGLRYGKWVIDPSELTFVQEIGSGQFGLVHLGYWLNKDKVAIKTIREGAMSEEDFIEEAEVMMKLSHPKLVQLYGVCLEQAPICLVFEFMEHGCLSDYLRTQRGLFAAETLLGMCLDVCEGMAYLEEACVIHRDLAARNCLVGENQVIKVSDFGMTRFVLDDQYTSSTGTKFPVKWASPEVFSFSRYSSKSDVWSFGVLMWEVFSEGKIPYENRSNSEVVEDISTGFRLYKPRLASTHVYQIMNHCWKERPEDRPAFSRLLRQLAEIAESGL
# [6] = molecular target: Serine/threonine-protein kinase 38 (Homo sapiens) (UniProt Q15208); assay: Selectivity interaction (ActivX KiNativ screen (ex vivo kinase selectivity in human PBMCs)) EUB0001619a STK38; type: cell-based; details: PBMC, at 1 µM
# Chain of Serine/threonine-protein kinase 38 (Homo sapiens) (Q15208 2-465 limits assumed): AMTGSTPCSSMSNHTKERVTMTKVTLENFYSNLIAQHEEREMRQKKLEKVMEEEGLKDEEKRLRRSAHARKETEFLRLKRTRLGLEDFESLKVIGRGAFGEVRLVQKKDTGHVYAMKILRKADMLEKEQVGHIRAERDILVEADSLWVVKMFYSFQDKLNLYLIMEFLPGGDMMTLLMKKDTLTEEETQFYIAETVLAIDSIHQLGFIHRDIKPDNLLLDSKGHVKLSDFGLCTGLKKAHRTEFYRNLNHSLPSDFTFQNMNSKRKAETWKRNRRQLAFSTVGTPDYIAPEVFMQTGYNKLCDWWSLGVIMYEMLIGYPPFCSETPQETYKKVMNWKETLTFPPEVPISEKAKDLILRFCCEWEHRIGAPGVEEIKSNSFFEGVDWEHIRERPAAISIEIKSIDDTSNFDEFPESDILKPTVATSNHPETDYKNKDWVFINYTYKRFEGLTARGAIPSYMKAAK
# Chain of 5'-AMP-activated protein kinase catalytic subunit alpha-1 (Q13131 whole entry, looked up): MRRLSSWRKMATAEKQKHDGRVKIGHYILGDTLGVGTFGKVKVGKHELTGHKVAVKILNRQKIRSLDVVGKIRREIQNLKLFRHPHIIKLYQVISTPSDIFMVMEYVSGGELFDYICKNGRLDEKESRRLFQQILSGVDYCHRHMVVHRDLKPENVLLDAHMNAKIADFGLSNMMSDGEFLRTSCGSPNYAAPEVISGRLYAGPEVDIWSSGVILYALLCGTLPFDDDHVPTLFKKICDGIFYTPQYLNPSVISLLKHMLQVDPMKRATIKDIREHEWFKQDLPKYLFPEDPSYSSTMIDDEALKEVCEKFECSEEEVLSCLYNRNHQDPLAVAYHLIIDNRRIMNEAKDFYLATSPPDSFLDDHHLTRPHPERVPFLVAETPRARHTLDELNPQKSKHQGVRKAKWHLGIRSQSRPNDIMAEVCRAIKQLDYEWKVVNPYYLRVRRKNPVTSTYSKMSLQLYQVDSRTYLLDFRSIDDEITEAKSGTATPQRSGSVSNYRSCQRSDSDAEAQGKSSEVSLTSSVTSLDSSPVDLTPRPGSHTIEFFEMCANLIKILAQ
# Chain of Histamine H1 receptor (P35367 whole entry, the tested form may be a part): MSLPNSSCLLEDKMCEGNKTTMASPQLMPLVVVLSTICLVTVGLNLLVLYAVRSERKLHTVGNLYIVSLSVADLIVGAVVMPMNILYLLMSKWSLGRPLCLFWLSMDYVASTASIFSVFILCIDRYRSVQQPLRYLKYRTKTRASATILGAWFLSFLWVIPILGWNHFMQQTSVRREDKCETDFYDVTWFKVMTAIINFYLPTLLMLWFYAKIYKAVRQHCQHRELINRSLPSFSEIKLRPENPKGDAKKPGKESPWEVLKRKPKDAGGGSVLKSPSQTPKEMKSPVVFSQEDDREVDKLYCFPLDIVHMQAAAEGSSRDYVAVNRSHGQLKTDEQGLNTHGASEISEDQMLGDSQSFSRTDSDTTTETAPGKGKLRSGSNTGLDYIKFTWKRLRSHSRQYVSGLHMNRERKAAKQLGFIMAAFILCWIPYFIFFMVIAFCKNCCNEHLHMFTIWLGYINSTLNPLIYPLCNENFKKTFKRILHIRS
compound,measurement,setting,value
CCC(=O)N1CC[C@H](Nc2ncnc3c2CN(c2cnc(OC)c(C(F)(F)F)c2)CC3)C1 [LENIOLISIB],IC50,[1],> 30 µM
Cc1ccc(-c2ccc3c(ccc4sc5c(c43)NC[C@@H](C)NC5=O)n2)cn1,% of inhibition,[2],-6%
CC[C@@H]1[C@H](F)C(=O)N[C@@H]1COc1nccc2cc(C(N)=O)c(OC)cc12 [ZIMLOVISERTIB],% of inhibition,[3],4.2%
Cc1cc([C@@H](C)Nc2ccccc2C(=O)O)c2nc(N3CCOCC3)cc(=O)n2c1 [AZD-6482],% of control,[4],91%
same,% of control,[5],98%
N#Cc1cccc(-c2c[nH]c3ncnc(N4CCOCC4)c23)c1,% of inhibition,[6],3%
